The subject of test [1] is MDA-MB-231. The conditions noted are these: incubation time: 72 h. An outline of the steps: (§1)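 For the IC50 and drug sensitivity score, logistic dose–response curves were fitted in Dotmatics Studies. The score compares curve area with a reference area and is normalised by log of top response. Input data were CellTiter-Blue fluorescence readings from MDA-MB-231 cells, transfected a day earlier with BRCA1 or non-targeting control siRNA, that had spent 72 h at 37 °C and 5% CO2 at 4000 cells per well in 384-well plates with compounds at 5 concentrations.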

The subject of test [2] is MDA-MB-231. The test is described as follows: drug sensitivity score (DSS); higher = more sensitive; extreme values may be limits of the assay. The conditions noted are these: incubation time: 72 h. An outline of the steps:
as §1

Where [3] appears, read: siRNA: siControl (non-targeting).

A value given as a limit tells only on which side of the number the result lay.

`CS(=O)(=O)c1ccc(C(=O)Nc2ccc(Cl)c(-c3ccccn3)c2)c(Cl)c1` [Vismodegib]: the “IC50 of cell viability” value with MDA-MB-231 [1] (siRNA: siBRCA1) and in the test on MDA-MB-231 [1] (setting [3]) was above 4170 nM throughout. For the same compound, the drug sensitivity score in the test on MDA-MB-231 [2] (siRNA: siBRCA1) and with MDA-MB-231 [2] (setting [3]) was 0 throughout.

As to `O=C(CCCCCCC(=O)Nc1ccccc1)NO` [Vorinostat], the “IC50 of cell viability” value in the test on MDA-MB-231 [1] (siRNA: siBRCA1) was 2040 nM; with MDA-MB-231 [1] (setting [3]) it was 1130 nM. Moreover, the drug sensitivity score is 6.81 in the test on MDA-MB-231 [2] (siRNA: siBRCA1) and 9.94 in the test with MDA-MB-231 [2] (setting [3]).

For `Oc1nc(-c2ccc(C(F)(F)F)cc2)nc2c1CSCC2` [XAV-939], the “IC50 of cell viability” value was found to be 2820 nM with MDA-MB-231 [1] (siRNA: siBRCA1) and 230 nM in the test with MDA-MB-231 [1] (setting [3]). Moreover, the values for the drug sensitivity score in the test with MDA-MB-231 [2] (siRNA: siBRCA1) and in the test with MDA-MB-231 [2] (setting [3]) were 1.98 and 4, respectively.

For `COCC[n+]1c2c(n(Cc3cnccn3)c1C)C(=O)c1ccccc1C2=O` [YM155], the “IC50 of cell viability” value in the test with MDA-MB-231 [1] (siRNA: siBRCA1) came to 3.75 nM; in the test with MDA-MB-231 [1] (setting [3]) it was 3.56 nM. Moreover, the drug sensitivity score in the test on MDA-MB-231 [2] (siRNA: siBRCA1) stood at 40.2; in the test on MDA-MB-231 [2] (setting [3]), 40.6.

(Values after the supplement of paper PMC4649846.)
